From patent US20130045952A1, “ABA Receptor Agonists for Increased Plant Stress Resistance” (Van Andel Research Institute, priority 2011, published 2013)

Legend:
HAB1 = target: T1, HAB1 (Arabidopsis thaliana, UniProt O49686+Q9CAJ0); experiment: PP2C phosphatase activity assay, HAB1; assay type: biochemical; conditions: 200 nM PP2C; SnRK2.6 phosphopeptide substrate; None = 100
T1 construct: HAB1 (residues 172-511) were prepared as recombinant proteins in E. coli; H6GST or H6Sumo; made in house; host or cells: E. coli
T1 sequence (Q9CAJ0 172-511 limits assumed): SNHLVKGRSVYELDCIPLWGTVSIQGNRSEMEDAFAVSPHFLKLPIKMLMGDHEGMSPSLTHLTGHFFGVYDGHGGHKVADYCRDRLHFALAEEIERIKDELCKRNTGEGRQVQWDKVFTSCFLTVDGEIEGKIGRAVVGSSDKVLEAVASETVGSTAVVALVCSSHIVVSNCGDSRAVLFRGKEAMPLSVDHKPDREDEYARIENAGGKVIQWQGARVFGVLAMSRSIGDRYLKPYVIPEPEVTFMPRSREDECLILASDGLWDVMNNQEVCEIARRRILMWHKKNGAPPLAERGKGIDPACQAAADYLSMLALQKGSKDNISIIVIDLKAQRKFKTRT
T1 sequence (O49686 1-191): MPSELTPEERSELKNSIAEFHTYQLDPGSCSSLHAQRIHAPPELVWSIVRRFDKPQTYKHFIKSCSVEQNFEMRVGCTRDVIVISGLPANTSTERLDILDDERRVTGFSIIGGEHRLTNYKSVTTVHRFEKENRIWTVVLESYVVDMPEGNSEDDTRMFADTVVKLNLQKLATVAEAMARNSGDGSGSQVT
Experimental: (§1) Mutant proteins were expressed as H6GST-fusion proteins and purified by glutathione sepharose chromatography. Protein-protein interactions were determined by luminescence proximity AlphaScreen assay. Biotinylated PP2C proteins for the luminescence proximity assay were generated by in vivo biotinylation of avitag-PP2C fusion proteins. PP2C phosphatase activity was measured by phosphate release from a SnRK2.6 phosphoprotein.
PP2Cs and PYR/PYL proteins were pre-incubated at the indicated concentrations in 50 mM imidazole, pH 7.2, 5 mM MgCl2, 0.1% β-mercaptoethanol and 0.5 mg/ml BSA for 30 min at room temperature. Reactions were started by addition of 100 μM of a phosphopeptide corresponding to amino acids 170-180 of SnRK2.6 (HSQPK^pSTVGTP). This peptide is phosphorylated at a single residue corresponding to Ser175 in SnRK2.6, whose phosphorylation is required for SnRK2.6 kinase activity^32. Phosphate release from ^pS175 from the phosphopeptide was determined by colorimetric assay (BioVision).

PYR1 = target: T2, PYR1 (Arabidopsis thaliana, UniProt O49686); conditions: in vivo; cited from earlier work
T2 sequence (O49686 1-191): T1 sequence (O49686 1-191)

PYL2 A93F = target: T3, PYL2 A93F (Arabidopsis thaliana, UniProt O80992, A93F); experiment: PP2C binding and phosphatase assays of mutant PYL2 A93F; assay type: biochemical
T3 construct: PYL2 (residues 14-188), and HAB1 (residues 172-511) were prepared as recombinant proteins in E. coli; made in house; host or cells: E. coli (stated for PYL2 in general)
Source text: The closest distance between the pyridine ring of pyrabactin and the LPA gating residues is 4.8 Å-7.0 Å when the LPA loop assumes the ABA-bound closed conformation, but is 11-13 Å when the LPA gate is in open conformation. In contrast, the distance of the naphthalene double ring of pyrabactin or the cyclohexene ring of ABA to the three side chains of the LPA gate in the PYL1 structure is 3.4-4.6 Å, a range for strong Van der Waals interactions, thus helping to keep the LPA gate in the closed conformation. […] To validate this hypothesis, we changed the alanine in the LPA loop to a larger residue. […] As expected from structural modeling, replacement of the gate residue A93 with the bulky phenylalanine ring also abrogated ABA to promote PYL2 activation.
as §1
(§2) Site-directed mutagenesis was carried out using the QuickChange method (Stratagene). Mutations and all plasmid constructs were confirmed by sequencing.

[1] = tested on: RD29B promoter-LUC reporter; experiment: Protoplast transient assay, reconstituted ABA signaling pathway, RD29B-LUC reporter; assay type: cell-based, Arabidopsis thaliana; conditions: Arabidopsis protoplasts
Experimental: The ABA signal transduction pathway was reconstituted in protoplasts by transient transfection of PYR/PYL receptor, ABI1, SnRK2.6, and ABF2 expression plasmids. Activation of an ABA-inducible RD29B promoter-LUC reporter was determined by luciferase assays normalized for β-glucuronidase activity from a UQ10-GUS reporter.
An ABA-inducible luciferase reporter was constructed by replacing the CBF3 promoter in the CBF3-LUC construct with the promoter region of RD29B, a highly ABA-inducible gene^2. CBF3-LUC, UQ10-GUS and ABI1 protoplast expression plasmid vectors were kindly provided by Jen Sheen (Massachusetts General Hospital, Boston, Mass. 02114).
Protoplasts were isolated from Arabidopsis thaliana ecotype Columbia-0 plants, which were grown on Jiffy7 soil (Jiffy Products Ltd., Canada) in an environment-controlled chamber at 22° C. with a photosynthetically active radiation of 75 μmol m^−2 s^−1 and a day/night cycle of 13 hours light/11 dark. Transient activity assays were performed in Arabidopsis mesophyll protoplasts from Columbia-0 wild-type plants as described by the Sheen laboratory^33. Transfected protoplasts were incubated for 5 hours in light in the presence of 0 or 5 μM (+) ABA and the indicated concentrations of pyrabactin, and then used for measuring LUC and GUS activity. […]

PYL1 I137V = target: T4, PYL1 I137V (Arabidopsis thaliana, UniProt Q8VZS8, I137V); experiment: PP2C interaction of mutant PYL1 I137V receptors; assay type: biochemical; conditions: mutation of PYL1 I137 to valine; also in PYL1 A190V or V193I context
T4 construct: PYL1 (residues 36-211), PYL2 (residues 14-188), and HAB1 (residues 172-511) were prepared as recombinant proteins in E. coli; made in house; host or cells: E. coli (stated for PYL1 in general)
Experimental: One key question is why pyrabactin adopts different conformations between PYL1 and PYL2. The ligand binding pockets of PYL2 and PYL1 only differ in three residues (PYL2/PYL1: V114/1137, V166/A190, and V170/1194). […] In contrast, the V114/1137 change in PYL1 collides with the naphthalene ring of pyrabactin in the PYL2 conformation (C—C distance of 2.2 Å) and forces pyrabactin to flip by 180°. […] Due to the very weak pyrabactin agonist activity in wildtype PYL1, this change is most clearly seen in the context of two mutant PYL1 receptors, in which residues A190 and V193 from helix 3 were exchanged against larger side chains that stabilize the binding of pyrabactin.
as §1, §2

T4 sequence (Q8VZS8 36-211 I137V): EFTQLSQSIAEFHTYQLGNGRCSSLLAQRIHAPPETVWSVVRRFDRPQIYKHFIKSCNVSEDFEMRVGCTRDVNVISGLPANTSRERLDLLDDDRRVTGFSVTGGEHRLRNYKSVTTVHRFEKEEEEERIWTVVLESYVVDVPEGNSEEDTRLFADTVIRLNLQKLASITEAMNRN
T3 sequence (O80992 14-188 A93F): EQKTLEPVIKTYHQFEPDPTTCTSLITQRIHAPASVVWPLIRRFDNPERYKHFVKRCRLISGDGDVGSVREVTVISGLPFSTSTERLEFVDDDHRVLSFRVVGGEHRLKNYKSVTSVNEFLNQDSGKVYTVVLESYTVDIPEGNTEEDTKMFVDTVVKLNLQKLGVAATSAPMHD

% Phosphatase Activity HAB1 (HAB1) [%]	SMILES	Activity at PYR1 in a seed germination assay (PYR1)	Activation of mutant PYL2 A93F receptor (PYL2 A93F)	PYL2 and ABA-dependent induction of the ABA-inducible reporter ([1]; receptor PYL2, with ABA)	PYR1-dependent induction of the ABA-inducible reporter RD29B-LUG ([1]; receptor PYR1, concentration-dependent)	Response of mutant PYL1 I137V receptor (PYL1 I137V)
6.1 ± 1.9	CCOC(=O)CNS(=O)(=O)c1ccc2c3c(cccc13)C(=O)N2CC [Compound 2]	–	–	–	–	–
16.6 ± 2.0	O=C1Nc2ccc(S(=O)(=O)NCc3ccccn3)c3cccc1c23 [Compound 1]	–	–	–	–	–
8.8 ± 0.3	CCN1C(=O)c2cccc3c(S(=O)(=O)NC[C@@H]4CCCO4)ccc1c23 [Compound 11]	–	–	–	–	–

SMILES	% Phosphatase Activity HAB1 (HAB1) [%]	Activity at PYR1 in a seed germination assay (PYR1)	Activation of mutant PYL2 A93F receptor (PYL2 A93F)	PYL2 and ABA-dependent induction of the ABA-inducible reporter ([1]; receptor PYL2, with ABA)	PYR1-dependent induction of the ABA-inducible reporter RD29B-LUG ([1]; receptor PYR1, concentration-dependent)	Response of mutant PYL1 I137V receptor (PYL1 I137V)
O=S(=O)(NCc1ccccn1)c1ccc(Br)c2ccccc12 [Pyrabactin, pyrabactin]	12.6 ± 0.3	selective agonist	pyrabactin-activated receptor	inhibited	promoted	pyrabactin-inhibited receptor
